Test results from US20230277630A1, “METHODS AND COMPOSITIONS FOR TREATING AMYOTROPHIC LATERAL SCLEROSIS” (Amylyx Pharmaceuticals, Inc., priority 2022, published 2023).
One block for each compound: values may come before it.

Experiments:
OCT2 [1] = molecular target: T1, OCT2 (Homo sapiens, UniProt O15244); test: in vitro; details: probe MPP+ (5 μM)
T1 sequence (O15244 1-555): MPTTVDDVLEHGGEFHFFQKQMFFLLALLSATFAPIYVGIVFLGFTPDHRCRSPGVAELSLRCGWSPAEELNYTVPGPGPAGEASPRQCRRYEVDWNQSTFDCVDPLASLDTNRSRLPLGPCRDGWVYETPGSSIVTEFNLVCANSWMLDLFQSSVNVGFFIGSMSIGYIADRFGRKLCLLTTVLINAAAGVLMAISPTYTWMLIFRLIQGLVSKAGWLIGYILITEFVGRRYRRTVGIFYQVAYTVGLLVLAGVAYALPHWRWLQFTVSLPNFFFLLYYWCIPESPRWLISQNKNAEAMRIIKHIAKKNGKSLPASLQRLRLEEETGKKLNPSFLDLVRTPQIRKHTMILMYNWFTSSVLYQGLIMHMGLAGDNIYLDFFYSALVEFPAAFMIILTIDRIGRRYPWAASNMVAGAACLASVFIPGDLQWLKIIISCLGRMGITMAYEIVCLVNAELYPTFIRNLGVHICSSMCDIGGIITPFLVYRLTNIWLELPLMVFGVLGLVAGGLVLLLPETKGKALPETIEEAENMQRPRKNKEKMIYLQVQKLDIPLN

OCT2 [2] = molecular target: T1, OCT2; test: OCT2 inhibitor (IC50) assessment, MPP+ uptake in transfected HEK cells; details: 5 μM MPP+ + 300 μM Imipramine
CYP2D6 = CYP2D6 (Homo sapiens, UniProt P10635); test: Inhibition of CYP2D6 activity in human liver microsomes; format: in vitro ADME; parameters: co-incubated with pooled HLM (0.25 mg protein/mL); from tissue; host or cells: pooled human liver microsomes; details: pooled human liver microsomes, pH 7.4, read-out: % of Control Enzyme Activity (n = 3) Average
CYP2C9 = CYP2C9 (Homo sapiens, UniProt P11712); details: 4 μM, pH 7.4
Method: The remaining of TA (expressed as the peak area ratio of test article to IS) was determined by LC-MS/MS. CYP enzyme activities of the HLM were verified in parallel by determining the formation of individual CYP probe metabolites by LC-MS/MS using standard curves.

[3] = CYP reaction phenotyping: CYP control (negative control without CYP enzymes); details: pH 7.4
Method: The reaction was initiated by the addition of NADPH, followed by incubation at 37° C.

hrCYP2C9 = hrCYP2C9 (Homo sapiens, UniProt P11712)
OAT3 [4] = molecular target: T2, OAT3 (Homo sapiens, UniProt Q8TCC7); test: in vitro; details: probe furosemide (5 μM)
T2 sequence (Q8TCC7 1-542): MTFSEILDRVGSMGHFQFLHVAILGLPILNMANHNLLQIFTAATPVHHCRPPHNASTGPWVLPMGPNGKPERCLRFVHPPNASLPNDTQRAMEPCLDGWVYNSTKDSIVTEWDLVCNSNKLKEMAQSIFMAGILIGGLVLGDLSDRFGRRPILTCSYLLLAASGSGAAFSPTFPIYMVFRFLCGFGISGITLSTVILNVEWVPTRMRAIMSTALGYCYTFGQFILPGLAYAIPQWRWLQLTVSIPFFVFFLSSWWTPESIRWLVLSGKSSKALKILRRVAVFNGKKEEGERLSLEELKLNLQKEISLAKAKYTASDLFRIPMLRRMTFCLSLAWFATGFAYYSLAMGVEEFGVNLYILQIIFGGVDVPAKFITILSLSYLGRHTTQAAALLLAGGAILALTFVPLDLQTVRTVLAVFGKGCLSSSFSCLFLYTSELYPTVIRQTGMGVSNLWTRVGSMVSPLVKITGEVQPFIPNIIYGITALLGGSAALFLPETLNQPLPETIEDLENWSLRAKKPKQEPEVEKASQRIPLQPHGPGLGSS

OAT3 [5] = molecular target: T2, OAT3; test: OAT3 inhibitor (IC50) assessment, furosemide uptake in transfected HEK cells; details: 5 μM Furosemide + 100 μM Probenecid
MATE2K [6] = molecular target: T3, MATE2K (Homo sapiens, UniProt Q86VL8); test: in vitro; details: probe metformin (50 μM)
MATE2K [7] = molecular target: T3, MATE2K; test: MATE2K inhibitor (IC50) assessment, metformin uptake in transfected HEK cells; details: 50 μM Metformin + 1 μM Pyrimethamine

Sequence of hrCYP2C9 (P11712 whole entry): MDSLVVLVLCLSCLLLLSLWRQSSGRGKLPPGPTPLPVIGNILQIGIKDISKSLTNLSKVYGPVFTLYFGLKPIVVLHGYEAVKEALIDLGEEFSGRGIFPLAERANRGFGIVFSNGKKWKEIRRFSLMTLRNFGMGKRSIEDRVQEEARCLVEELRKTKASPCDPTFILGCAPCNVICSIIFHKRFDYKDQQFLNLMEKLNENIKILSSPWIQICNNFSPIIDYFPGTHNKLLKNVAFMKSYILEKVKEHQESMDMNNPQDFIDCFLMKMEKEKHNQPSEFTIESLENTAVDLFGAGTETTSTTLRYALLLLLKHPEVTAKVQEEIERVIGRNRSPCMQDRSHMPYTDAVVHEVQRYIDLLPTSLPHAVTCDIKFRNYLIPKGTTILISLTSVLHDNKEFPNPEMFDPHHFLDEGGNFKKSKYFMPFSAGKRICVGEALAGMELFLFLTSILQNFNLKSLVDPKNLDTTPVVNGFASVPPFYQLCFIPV
T3 sequence (Q86VL8 1-566 isoform Q86VL8-3): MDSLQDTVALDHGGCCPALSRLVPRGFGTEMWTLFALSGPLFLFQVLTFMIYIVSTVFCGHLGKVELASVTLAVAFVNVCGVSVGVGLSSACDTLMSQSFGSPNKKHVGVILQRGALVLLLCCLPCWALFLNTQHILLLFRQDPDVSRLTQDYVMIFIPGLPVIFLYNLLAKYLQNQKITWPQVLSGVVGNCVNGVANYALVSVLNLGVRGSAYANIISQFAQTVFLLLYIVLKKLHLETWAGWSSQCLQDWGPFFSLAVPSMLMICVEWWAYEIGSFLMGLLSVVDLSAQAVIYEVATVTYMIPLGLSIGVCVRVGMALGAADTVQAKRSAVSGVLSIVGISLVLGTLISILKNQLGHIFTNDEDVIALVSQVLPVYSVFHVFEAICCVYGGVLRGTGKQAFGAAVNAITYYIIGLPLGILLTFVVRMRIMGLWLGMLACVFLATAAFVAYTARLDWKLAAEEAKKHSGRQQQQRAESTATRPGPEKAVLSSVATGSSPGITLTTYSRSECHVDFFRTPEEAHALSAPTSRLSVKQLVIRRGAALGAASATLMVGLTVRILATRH
Sequence of CYP2C9 (P11712 whole entry): as the sequence (P11712 whole entry) above
Sequence of CYP2D6 (P10635 whole entry): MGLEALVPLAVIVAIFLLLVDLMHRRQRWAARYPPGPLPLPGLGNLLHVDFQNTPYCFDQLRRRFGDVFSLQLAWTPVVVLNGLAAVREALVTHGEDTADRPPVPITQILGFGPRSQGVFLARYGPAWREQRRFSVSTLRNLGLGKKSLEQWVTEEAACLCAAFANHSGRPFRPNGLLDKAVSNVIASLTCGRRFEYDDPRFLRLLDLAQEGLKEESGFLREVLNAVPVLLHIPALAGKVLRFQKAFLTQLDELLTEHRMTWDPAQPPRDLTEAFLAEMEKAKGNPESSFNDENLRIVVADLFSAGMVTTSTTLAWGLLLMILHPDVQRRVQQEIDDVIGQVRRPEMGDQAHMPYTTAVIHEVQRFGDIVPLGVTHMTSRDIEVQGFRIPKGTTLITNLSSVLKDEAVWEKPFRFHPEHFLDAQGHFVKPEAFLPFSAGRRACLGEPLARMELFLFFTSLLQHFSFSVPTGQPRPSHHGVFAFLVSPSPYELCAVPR

SMILES: CN(C)CCCN1c2ccccc2CCc2ccccc21 [imipramine]
- inhibition at 300 μM (OCT2 [1]): 97.9%
- Percentage Inhibition of OCT2 (OCT2 [2]): 97.9%

SMILES: C=C[C@H]1C[N@@]2CC[C@H]1C[C@@H]2[C@@H](O)c1ccnc2ccc(OC)cc12 [Quinidine]
- activity at 10 μM (CYP2D6): 5.61%

SMILES: O=C(O)Cc1ccccc1Nc1c(Cl)cccc1Cl [Diclofenac]
- Formation Rate Ratio (CYP2C9): 7.7
- Formation Rate [3]: 0 pmol metabolite/min/mg Supersome protein
- Measured Metabolite [3]: 0 µM
- Formation Rate Ratio (hrCYP2C9): >>2
- Formation Rate (hrCYP2C9; human, 20 min, 6 μM, pH 7.4): 845 pmol metabolite/min/mg Supersome protein
- Measured Metabolite (hrCYP2C9; human, 20 min, 6 μM, pH 7.4): 1.56 µM

Now from value to compound:

- inhibition at 100 μM (OAT3 [4]): 99.1%
- Percentage Inhibition of OAT3 (OAT3 [5]): 99.1%
SMILES: CCCN(CCC)S(=O)(=O)c1ccc(C(=O)O)cc1 [probenecid]

- inhibition at 1 μM (MATE2K [6]): 85.3%
- Percentage Inhibition of MATE2K (MATE2K [7]): 85.3%
SMILES: CCc1nc(N)nc(N)c1-c1ccc(Cl)cc1 [pyrimethamine]
